From patent US20150157022A1, “S[…] CONTROL AND IMPROVED CROP TOLERANCE FROM COMBINATIONS OF 2,4-D-CHOLINE AND G[…] 2,4-D- AND GLUFOSINATE-TOLERANT SOYBEANS, CORN, COTTON” (Dow AgroSciences LLC, priority 2013, published 2015)
Several values for one entry are separate records, joined by “and”; a condition that tells them apart may be missing. Equal entries are not always repeated. Structures can show the parent of a compound that is named as a salt.

How the values were obtained:
[1] = tested on: Amaranthus palmeri S. Wats. (Palmer amaranth, AMAPA); test: Field trial, post-emergence weed control (% visual control), AMAPA; assay type: in vivo
Method: (§1) These trials were conducted under field conditions in multiple states in the United States, including but not limited to Arkansas, Illinois, Indiana, Minnesota, Mississippi,
(§2) Nebraska, Ohio, Oklahoma, Texas, South Carolina and South Dakota. […] Treatments were applied with small plot backpack sprayers, using pressurized air or carbon dioxide (CO2) as propellant. Pressure varied from 22-50 pounds per square inch (psi), with spray tips typically of a Flat Fan type applying water diluent at 15 gallons per acre (GPA). Boom sizes varied from 6.3-10 ft in width. Treatments were applied to soybean, cotton, corn or fallow crop land. Weed sizes varied, but all treatments were applied as post-emergence treatments to weeds from 2 leaf to 2 tiller growth stages varying from 2 to 15 inches in height. The weed spectrum included, but was not limited to, Amaranthus palmeri S. Wats. (Palmer amaranth, AMAPA), Conyza canadensis (L.) Cronq. (horseweed, ERICA), Salsola tragus L. (Russian thistle, SASKR) and Sesbania exaltata (hemp sesbania, SEBEX).
(§3) The 2,4-D-choline salt formulation was a 456 g ae/L SL. […] All treatments were mixed in water at appropriate formulated product rates to achieve the desired rates as shown based on a unit area of application (hectare). Treatments were rated at 2 to 28 days after application (DAA) as compared to the untreated control plants. The trial sites had naturally occurring populations of weeds. The treated plots and control plots were rated blind at various intervals after application.
(§4) Colby's equation was used to determine the herbicidal effects expected from the mixtures (Colby, S. R. Calculation of the synergistic and antagonistic response of herbicide combinations. Weeds 1967, 15, 20-22). A t-test (alpha=0.05) between Colby predictions and observed combinations was used to test for significant differences indicating synergy or antagonism using replicate data.
(§5) The following equation was used to calculate the expected activity of mixtures containing two active ingredients, A and B:
(§6) Expected=A+B−(A×B/100) • A=observed efficacy of active ingredient A at the same concentration as used in the mixture; • B=observed efficacy of active ingredient B at the same concentration as used in the mixture.

[2] = tested on: Conyza canadensis (L.) Cronq. (horseweed, ERICA); test: Field trial, post-emergence weed control (% visual control), ERICA; assay type: in vivo
Method: as §1, §2, §3, §4, §5, §6

[3] = tested on: Salsola tragus L. (Russian thistle, SASKR); test: Field trial, post-emergence weed control (% visual control), SASKR; assay type: in vivo
Method: as §1, §2, §3, §4, §5, §6

[4] = tested on: Sesbania exaltata (hemp sesbania, SEBEX); test: Field trial, post-emergence weed control (% visual control), SEBEX; assay type: in vivo
Method: as §1, §2, §3, §4, §5, §6

AAD12 Soybean (GLXMA) = test: Field crop tolerance trial in 2,4-D- and glufosinate-tolerant soybean (% visual injury, chlorosis, growth inhibition)
Method: as §1, §2
2,4-D- and glufosinate-tolerant soybeans, corn and cotton and optionally a glyphosate trait in a breeding (CP4 EPSPS) or a molecular stack (2mEPSPS) were used in all tolerance trials.
The 2,4-D-choline salt formulation was a 456 g ae/L SL. […] All treatments were mixed in water at appropriate formulated product rates to achieve the desired rates as shown based on a unit area of application (hectare). Treatments were rated at 2 to 28 days after application (DAA) as compared to the untreated control plants. The trial sites had naturally occurring populations of weeds. The treated plots and control plots were rated blind at various intervals after application. […]

SMILES: O=C(O)COc1ccc(Cl)cc1Cl [2,4-D-Choline salt, 2-hydroxy-N,N,N-trimethylethanaminium 2-(2,4-dichlorophenoxy)acetate]
- Mean % weed control ([1]; 7 DAA, 800 g ae/ha): 47.5%
- Mean % weed control ([1]; 10 DAA, 1065 g ae/ha): 55.0%
- Mean % weed control ([1]; 13 DAA, 1065 g ae/ha): 45.0%
- Mean % weed control ([1]; 16 DAA, 800 g ae/ha): 62.5%
- Mean % weed control ([1]; 21 DAA, 1065 g ae/ha): 38.8%
- Mean % weed control ([1]; 22 DAA, 800 g ae/ha): 48.8%
- Mean % weed control ([2]; 7 DAA, 1065 g ae/ha): 40.0%
- Mean % weed control ([2]; 13 DAA, 1065 g ae/ha): 40.0%
- Mean % weed control ([2]; 22 DAA, 1065 g ae/ha): 40.0%
- Mean % weed control ([2]; 28 DAA, 1065 g ae/ha): 30.0%
- Mean % weed control ([3]; 14 DAA, 1065 g ae/ha): 67.5%
- Mean % weed control ([3]; 21 DAA, 1065 g ae/ha): 65.0%
- Mean % weed control ([4]; 8 DAA, 800 g ae/ha): 32.5%
- Mean % weed control ([4]; 16 DAA, 800 g ae/ha): 42.5%
- Mean % weed control ([4]; 23 DAA, 800 g ae/ha): 38.8%
- Mean % crop chlorosis (AAD12 Soybean (GLXMA); 2 DAA, 2130 g ae/ha): 0.0% and 2.3%
- Mean % crop injury (AAD12 Soybean (GLXMA); 2 DAA, 2130 g ae/ha): 3.5% and 5.0%
- Mean % crop chlorosis (AAD12 Soybean (GLXMA); 3 DAA, 1065 g ae/ha): 0.0%
- Mean % crop injury (AAD12 Soybean (GLXMA); 3 DAA, 1065 g ae/ha): 0.3%
- Mean % crop chlorosis (AAD12 Soybean (GLXMA); 3 DAA, 2130 g ae/ha): 0.0% and 1.3% and 0.8% and 0.5%
- Mean % crop injury (AAD12 Soybean (GLXMA); 3 DAA, 2130 g ae/ha): 0.3%
- Mean % crop chlorosis (AAD12 Soybean (GLXMA); 4 DAA, 1065 g ae/ha): 0.0%
- Mean % crop injury (AAD12 Soybean (GLXMA); 4 DAA, 1065 g ae/ha): 0.0%
- Mean % crop chlorosis (AAD12 Soybean (GLXMA); 4 DAA, 2130 g ae/ha): 0.0% and 0.7%
- Mean % crop injury (AAD12 Soybean (GLXMA); 4 DAA, 2130 g ae/ha): 1.0%
- Mean % crop injury (AAD12 Soybean (GLXMA); 6 DAA, 1065 g ae/ha): 4.0%
- Mean % crop injury (AAD12 Soybean (GLXMA); 6 DAA, 2130 g ae/ha): 4.0%
- Mean % crop chlorosis (AAD12 Soybean (GLXMA); 7 DAA, 1065 g ae/ha): 0.0%
- Mean % crop chlorosis (AAD12 Soybean (GLXMA); 7 DAA, 2130 g ae/ha): 0.0% and 1.7% and 1.3% and 3.0%
- Mean % crop growth inhibition (AAD12 Soybean (GLXMA); 7 DAA, 2130 g ae/ha): 1%
- Mean % crop injury (AAD12 Soybean (GLXMA); 7 DAA, 2130 g ae/ha): 4.0% and 13.3%
- Mean % crop chlorosis (AAD12 Soybean (GLXMA); 8 DAA, 1065 g ae/ha): 0.0%
- Mean % crop chlorosis (AAD12 Soybean (GLXMA); 8 DAA, 2130 g ae/ha): 0.0%
- Mean % crop chlorosis (AAD12 Soybean (GLXMA); 9 DAA, 1065 g ae/ha): 0.0%
- Mean % crop injury (AAD12 Soybean (GLXMA); 9 DAA, 1065 g ae/ha): 0.0%
- Mean % crop chlorosis (AAD12 Soybean (GLXMA); 9 DAA, 2130 g ae/ha): 0.0%
- Mean % crop injury (AAD12 Soybean (GLXMA); 9 DAA, 2130 g ae/ha): 0.0%
- Mean % crop chlorosis (AAD12 Soybean (GLXMA); 13 DAA, 1065 g ae/ha): 0.0%
- Mean % crop injury (AAD12 Soybean (GLXMA); 13 DAA, 1065 g ae/ha): 2.0%
- Mean % crop chlorosis (AAD12 Soybean (GLXMA); 13 DAA, 2130 g ae/ha): 0.0%
- Mean % crop injury (AAD12 Soybean (GLXMA); 13 DAA, 2130 g ae/ha): 3.3%
- Mean % crop chlorosis (AAD12 Soybean (GLXMA); 14 DAA, 1065 g ae/ha): 0.0%
- Mean % crop injury (AAD12 Soybean (GLXMA); 14 DAA, 1065 g ae/ha): 3.0% and 0.0%
- Mean % crop chlorosis (AAD12 Soybean (GLXMA); 14 DAA, 2130 g ae/ha): 0.0% and 0.8% and 1.3%
- Mean % crop growth inhibition (AAD12 Soybean (GLXMA); 14 DAA, 2130 g ae/ha): 0%
- Mean % crop injury (AAD12 Soybean (GLXMA); 14 DAA, 2130 g ae/ha): 2.3%
- Mean % crop chlorosis (AAD12 Soybean (GLXMA); 15 DAA, 2130 g ae/ha): 0.0%
- Mean % crop growth inhibition (AAD12 Soybean (GLXMA); 15 DAA, 2130 g ae/ha): 0%
- Mean % crop injury (AAD12 Soybean (GLXMA); 15 DAA, 2130 g ae/ha): 0.0%

SMILES: CP(=O)(O)CCC(N)C(=O)O (stereo not shown) [Glufosinate-ammonium, ammonium (3-amino-3-carboxypropyl)(methyl)phosphinate]
- Mean % weed control ([1]; 7 DAA, 542 g ae/ha): 80.0%
- Mean % weed control ([1]; 10 DAA, 542 g ae/ha): 54.3%
- Mean % weed control ([1]; 13 DAA, 542 g ae/ha): 75.0%
- Mean % weed control ([1]; 16 DAA, 542 g ae/ha): 65.0%
- Mean % weed control ([1]; 21 DAA, 542 g ae/ha): 51.3%
- Mean % weed control ([1]; 22 DAA, 542 g ae/ha): 56.3%
- Mean % weed control ([2]; 7 DAA, 542 g ae/ha): 75.0%
- Mean % weed control ([2]; 13 DAA, 542 g ae/ha): 85.0%
- Mean % weed control ([2]; 22 DAA, 542 g ae/ha): 80.0%
- Mean % weed control ([2]; 28 DAA, 542 g ae/ha): 98.0%
- Mean % weed control ([3]; 14 DAA, 542 g ae/ha): 12.5%
- Mean % weed control ([3]; 21 DAA, 542 g ae/ha): 6.3%
- Mean % weed control ([4]; 8 DAA, 542 g ae/ha): 73.8%
- Mean % weed control ([4]; 16 DAA, 542 g ae/ha): 78.8%
- Mean % weed control ([4]; 23 DAA, 542 g ae/ha): 65.0%
